Data published in US11414416B1, “Compounds and uses thereof” (Foghorn Therapeutics Inc., priority 2019, dated 2022).

Molecular target: Nanoluciferase-BRD9 fusion protein (Homo sapiens (Human), UniProt Q9H8M2)
Test: SYO1 BRD9 NanoLuc degradation assay
Format: cell-based
Conditions: Table 5B; SYO-1 cells expressing 3×FLAG-NLuc-BRD9, 6 hours; read-out: SYO1 BRD9-NanoLuc degradation IC50
Summary of the method: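 Degradation was read as loss of nanoluciferase signal (Nano-Glo) after 6 h compound exposure in a stable SYO-1 line carrying 3×FLAG-NLuc-BRD9 (8000 cells/well). Normalised between DMSO (high) and a 1 μM known BRD9 degrader (low).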

Sequence of Nanoluciferase-BRD9 fusion protein (Q9H8M2 whole entry, the tested form may be a part): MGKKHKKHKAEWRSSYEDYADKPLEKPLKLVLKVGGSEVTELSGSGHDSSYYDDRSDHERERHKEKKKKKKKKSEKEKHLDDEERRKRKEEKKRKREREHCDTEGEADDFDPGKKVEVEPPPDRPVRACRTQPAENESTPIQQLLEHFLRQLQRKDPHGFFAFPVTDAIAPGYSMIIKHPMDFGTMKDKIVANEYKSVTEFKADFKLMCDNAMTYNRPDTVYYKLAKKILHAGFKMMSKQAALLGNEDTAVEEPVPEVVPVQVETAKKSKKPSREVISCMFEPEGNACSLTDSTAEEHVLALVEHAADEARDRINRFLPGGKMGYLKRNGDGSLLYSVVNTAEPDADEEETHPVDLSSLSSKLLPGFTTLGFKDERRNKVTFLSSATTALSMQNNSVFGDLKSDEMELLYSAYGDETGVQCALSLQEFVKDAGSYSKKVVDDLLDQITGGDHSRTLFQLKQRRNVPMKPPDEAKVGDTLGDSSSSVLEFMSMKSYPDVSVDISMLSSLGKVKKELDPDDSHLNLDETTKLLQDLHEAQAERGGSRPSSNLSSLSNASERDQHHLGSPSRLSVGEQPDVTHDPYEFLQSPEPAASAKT

DC50	SMILES
> 1000 nM	COc1cc(-c2cn(C)c(=O)c3cnccc23)cc(OC)c1CN(C)CCOCCOCCOCC(=O)N[C@@H](C(=O)N1C[C@@H](O)C[C@@H]1C(=O)NCc1ccc(-c2scnc2C)cc1)C(C)(C)C [DD1]
100 to 1000 nM	COc1cc(-c2cn(C)c(=O)c3cnccc23)cc(OC)c1CN(C)CCN(C)CCNC(=O)COc1ccc2c(c1)C(=O)N(C1CCC(=O)NC1=O)C2=O (stereo not drawn) [DD2]
> 1000 nM	COc1cc(-c2cn(C)c(=O)c3cnccc23)cc(OC)c1CN(C)CCOCCOCCNc1cccc2nc(C)n(C3CCC(=O)NC3=O)c(=O)c12 (stereo not drawn) [DD3]

Same assay, conditions: Table 5C; SYO-1 cells expressing 3×FLAG-NLuc-BRD9, 6 hours

IC50	SMILES
< 10 nM	COc1cc(-c2cc(C)c(=O)n(C)c2)cc(OC)c1CN1CC(C)(C#Cc2ccc3c(c2)C(=O)N(C2CCC(=O)NC2=O)C3)C1 (stereo not drawn) [Compound D450]
< 10 nM	COc1cc(-c2cc(C)c(=O)n(C)c2)cc(OC)c1CN1CC(C#Cc2ccc3c(c2)C(=O)N(C2CCC(=O)NC2=O)C3)C1C (stereo not drawn) [Compound D453]
> 1000 nM	C/C=C/Cn1cc(-c2ccc(CN3CCN(S(=O)(=O)c4ccc5c(c4)C(=O)N(C4CCC(=O)NC4=O)C5)CC3)c(Cl)c2)n2cncc2c1=O (stereo not drawn) [Compound D464]

Same assay, conditions: Table 5C; SYO-1 cells expressing 3×FLAG-NLuc-BRD9, 6 hours; read-out: SYO1 BRD9-NanoLuc degradation IC50

DC50	SMILES
< 10 nM	COc1cc(-c2cn(C)c(=O)c3cn(C)nc23)cc(OC)c1CN1CCC2(CC1)CN(c1ccc3c(c1)C(=O)N(C1CCC(=O)NC1=O)C3)C2 (stereo not drawn) [Compound D416]
< 10 nM	CCn1cc2c(=O)n(C)cc(-c3cc(OC)c(CN4CCC5(CC4)CN(c4ccc6c(c4)C(=O)N(C4CCC(=O)NC4=O)C6)C5)c(OC)c3)c2n1 (stereo not drawn) [Compound D417]
< 10 nM	COc1cc(-c2cn(C)c(=O)c3nn(C)cc23)cc(OC)c1CN1CCC2(CC1)CN(c1ccc3c(c1)C(=O)N(C1CCC(=O)NC1=O)C3)C2 (stereo not drawn) [Compound D421]
< 10 nM	[2H]C([2H])([2H])n1cc(-c2cc(OC)c(CN3[C@H](C)CN(c4ccc5c(c4)C(=O)N(C4CCC(=O)NC4=O)C5)C[C@H]3C)c(OC)c2)c2nn(C)cc2c1=O (stereo partly drawn) [Compound D424]
< 10 nM	COc1cc(-c2cc(C(F)F)c(=O)n(C)c2)cc(OC)c1CN1CCC2(CC1)CN(c1ccc3c(c1)C(=O)N(C1CCC(=O)NC1=O)C3)C2 (stereo not drawn) [Compound D425]
> 1000 nM	COc1cc(-c2cn(C)c(=O)cn2)cc(OC)c1CN1CCC2(CC1)CN(c1ccc3c(c1)C(=O)N(C1CCC(=O)NC1=O)C3)C2 (stereo not drawn) [Compound D429]
> 1000 nM	COc1cc(-c2ccn3c(=O)n(C)ccc23)cc(OC)c1CN1CCC2(CC1)CN(c1ccc3c(c1)C(=O)N(C1CCC(=O)NC1=O)C3)C2 (stereo not drawn) [Compound D435]
< 10 nM	COc1cc(-c2cn(C)c(=O)cc2C)cc(OC)c1CN1CCN(c2ccc3c(c2)C(=O)N(C2CCC(=O)NC2=O)C3=O)CC1 (stereo not drawn) [Compound D436]
> 1000 nM	COc1cc(-c2c(C)n(C)c(=O)c3[nH]c(C)cc23)cc(OC)c1CN1CCC2(CC1)CN(c1ccc3c(c1)C(=O)N(C1CCC(=O)NC1=O)C3)C2 (stereo not drawn) [Compound D437]
< 10 nM	COc1cc(-c2cc(C)c(=O)n(C)c2)cc(OC)c1CN1CC(C#Cc2ccc3c(c2)CN(C2CCC(=O)NC2=O)C3=O)C1 (stereo not drawn) [Compound D440]
< 10 nM	COc1cc(-c2cc(C(F)F)c(=O)n(C)c2)cc(OC)c1CN1CC(C#Cc2ccc3c(c2)CN(C2CCC(=O)NC2=O)C3=O)C1 (stereo not drawn) [Compound D441]
100 to 1000 nM	COc1cc(-c2cn(C)c(=O)c3nccn23)cc(OC)c1CN1CCC2(CC1)CN(c1ccc3c(c1)C(=O)N(C1CCC(=O)NC1=O)C3)C2 (stereo not drawn) [Compound D447]
< 10 nM	COc1cc(-c2cc(C)c(=O)n(C)c2)cc(OC)c1CN1CC(CCc2ccc3c(c2)C(=O)N(C2CCC(=O)NC2=O)C3)C1 (stereo not drawn) [Compound D448]
< 10 nM	C/C=C/Cn1cc(-c2cc(OC)c(CN3CCC4(CC3)CN(c3ccc5c(c3)C(=O)N(C3CCC(=O)NC3=O)C5)C4)c(OC)c2)n2cncc2c1=O (stereo not drawn) [Compound D454]
< 10 nM	COc1cc(-c2cn(C)c(=O)c3ccnn23)cc(OC)c1CN1CCC2(CC1)CN(c1ccc3c(c1)C(=O)N(C1CCC(=O)NC1=O)C3)C2 (stereo not drawn) [Compound D456]
< 10 nM	Cc1cc(-c2ccc(N3CCN(c4ccc5c(c4)C(=O)N(C4CCC(=O)NC4=O)C5)CC3)cc2)cn(C)c1=O (stereo not drawn) [Compound D459]
< 10 nM	Cc1cc(-c2ccc(CN3CCN(c4ccc5c(c4)C(=O)N(C4CCC(=O)NC4=O)C5)CC3)cc2)cn(C)c1=O (stereo not drawn) [Compound D460]
< 10 nM	C/C=C/Cn1cc(-c2ccc(CN3CCC4(CC3)CN(c3ccc5c(c3)C(=O)N(C3CCC(=O)NC3=O)C5)C4)c(Cl)c2)n2cncc2c1=O (stereo not drawn) [Compound D465]
> 1000 nM	C/C=C/Cn1cc(-c2cc(OC)c(CN3CCN(c4ccc5c(c4)C(=O)N(C4CCC(=O)NC4=O)C5)CC3)c(OC)c2)c2cc(C)[nH]c2c1=O (stereo not drawn) [Compound D468]
< 10 nM	COc1cc(-c2cn(C)c(=O)c3cnccc23)cc(OC)c1CN1CCC2(CC1)CN(c1ccnc(C(=O)NC3CCC(=O)NC3=O)c1)C2 (stereo not drawn) [Compound D471]
> 1000 nM	COc1cc(-c2cn(C)c(=O)c3cnccc23)cc(OC)c1CN1CCC2(CC1)CN(c1nccc(C(=O)NC3CCC(=O)NC3=O)n1)C2 (stereo not drawn) [Compound D472]
> 1000 nM	COc1cc(-c2cn(C)c(=O)c3cnccc23)cc(OC)c1CN1CCC2(CC1)CN(c1ccc3c(c1)C(=O)N(C1CC(=O)NC(=O)C1)C3)C2 [Compound D474]

Continued, compound first:

SMILES	DC50
COc1cc(-c2cn(C)c(=O)c3[nH]cc(C)c23)cc(OC)c1CN1CCC2(CC1)CN(c1ccc3c(c1)C(=O)N(C1CCC(=O)NC1=O)C3=O)C2 (stereo not drawn) [Compound D418]	< 10 nM
COc1cc(-c2cn(C)c(=O)c3[nH]c(C)cc23)cc(OC)c1CN1CCC2(CC1)CN(c1ccc3c(c1)C(=O)N(C1CCC(=O)NC1=O)C3)C2 (stereo not drawn) [Compound D422]	< 10 nM
COc1cc(-c2cc(C)c(=O)n(C)c2C)cc(OC)c1CN1CCN(c2ccc3c(c2)CN(C2CCC(=O)NC2=O)C3=O)CC1 (stereo not drawn) [Compound D423]	< 10 nM
COc1cc(-c2cn(C)c(=O)c3[nH]cc(C)c23)cc(OC)c1CN1CCC2(CC1)CN(c1ccc3c(c1)C(=O)N(C1CCC(=O)NC1=O)C3)C2 (stereo not drawn) [Compound D426]	< 10 nM
COc1cc(-c2cc(C)c(=O)n(C)c2C)cc(OC)c1CN1CCN(c2ccc3c(c2)C(=O)N(C2CCC(=O)NC2=O)C3)CC1 (stereo not drawn) [Compound D427]	< 10 nM
COc1cc(-c2cn(C)c(=O)c3cncn23)cc(OC)c1CN1CCC2(CC1)CN(c1ccc3c(c1)C(=O)N(C1CCC(=O)NC1=O)C3)C2 (stereo not drawn) [Compound D428]	< 10 nM
COc1cc(-c2cn(C)c(=O)c(C)c2C)cc(OC)c1CN1CCC2(C1)CN(c1ccc3c(c1)C(=O)N(C1CCC(=O)NC1=O)C3=O)C2 (stereo not drawn) [Compound D430]	< 10 nM
COc1cc(-c2cn(C)c(=O)c3cccn23)cc(OC)c1CN1CCC2(CC1)CN(c1ccc3c(c1)C(=O)N(C1CCC(=O)NC1=O)C3)C2 (stereo not drawn) [Compound D431]	< 10 nM
COc1cc(-c2cc(C(F)F)c(=O)n(C)c2)cc(OC)c1CN1CCC2(C1)CN(c1ccn3c(=O)n(C4CCC(=O)NC4=O)nc3c1)C2 (stereo not drawn) [Compound D432]	10 to 100 nM
COc1cc(-c2cn(C)c(=O)c3[nH]ncc23)cc(OC)c1CN1CCC2(CC1)CN(c1ccc3c(c1)C(=O)N(C1CCC(=O)NC1=O)C3)C2 (stereo not drawn) [Compound D433]	< 10 nM
COc1cc(-c2cn(C)c(=O)c3[nH]cnc23)cc(OC)c1CN1CCC2(CC1)CN(c1ccc3c(c1)C(=O)N(C1CCC(=O)NC1=O)C3)C2 (stereo not drawn) [Compound D434]	< 10 nM
COc1cc(-c2cc(C)c(=O)n(C)c2)cc(OC)c1CN1CC(C#Cc2ccc3c(c2)C(=O)N(C2CCC(=O)NC2=O)C3)C1 (stereo not drawn) [Compound D438]	< 10 nM
COc1cc(-c2cc(C)c(=O)n(C)c2)cc(OC)c1CN1CCC(C#Cc2ccc3c(c2)C(=O)N(C2CCC(=O)NC2=O)C3)C1 (stereo not drawn) [Compound D442]	< 10 nM
COc1cc(-c2cc(C)c(=O)n(C)c2)cc(OC)c1CN1CCC(C#Cc2ccc3c(c2)C(=O)N(C2CCC(=O)NC2=O)C3)CC1 (stereo not drawn) [Compound D443]	< 10 nM
COc1cc(-c2cc(C(F)F)c(=O)n(C)c2)cc(OC)c1CN1CCC(C#Cc2ccc3c(c2)C(=O)N(C2CCC(=O)NC2=O)C3)CC1 (stereo not drawn) [Compound D444]	< 10 nM
COc1cc(-c2c(C)n(C)c(=O)c3[nH]cc(C)c23)cc(OC)c1CN1CCC2(CC1)CN(c1ccc3c(c1)C(=O)N(C1CCC(=O)NC1=O)C3=O)C2 (stereo not drawn) [Compound D445]	> 1000 nM
COc1cc(-c2c(C)n(C)c(=O)c3[nH]c(C)cc23)cc(OC)c1CN1CCC2(CC1)CN(c1ccc3c(c1)C(=O)N(C1CCC(=O)NC1=O)C3=O)C2 (stereo not drawn) [Compound D446]	> 1000 nM
COc1cc(-c2cc(C)c(=O)n(C)c2)cc(OC)c1CN1CC(Cc2ccc3c(c2)C(=O)N(C2CCC(=O)NC2=O)C3)C1 (stereo not drawn) [Compound D449]	10 to 100 nM
COc1cc(-c2cc(C(F)F)c(=O)n(C)c2)cc(OC)c1-c1ccc2c(c1)C(=O)N(C1CCC(=O)NC1=O)C2 (stereo not drawn) [Compound D451]	10 to 100 nM
COc1cc(-c2cc(C)c(=O)n(C)c2)cc(OC)c1CN1CCN(c2ccc3c(c2)C(=O)N(C2CCC(=O)NC2=O)C3)CC1 (stereo not drawn) [Compound D452]	< 10 nM
COc1cc(-c2cc(C(F)F)c(=O)n(C)c2)cc(OC)c1C1CN(c2ccc3c(c2)C(=O)N(C2CCC(=O)NC2=O)C3)C1 (stereo not drawn) [Compound D455]	< 10 nM
COc1cc(-c2cc(C)c(=O)n(C)c2)cc(OC)c1CN1CC(/C=C/c2ccc3c(c2)C(=O)N(C2CCC(=O)NC2=O)C3)C1 (stereo not drawn) [Compound D457]	< 10 nM
COc1cc(-c2cn(C)c(=O)c(C)n2)cc(OC)c1CN1CCC2(CC1)CN(c1ccc3c(c1)C(=O)N(C1CCC(=O)NC1=O)C3)C2 (stereo not drawn) [Compound D461]	10 to 100 nM
COc1cc(-c2cn(C)c(=O)c3cn(OC)nc23)cc(OC)c1CN1CCC2(CC1)CN(c1ccc3c(c1)C(=O)N(C1CCC(=O)NC1=O)C3)C2 (stereo not drawn) [Compound D462]	< 10 nM
C/C=C/Cn1cc(-c2cc(OC)c(CN3CCC4(CC3)CN(c3ccc5c(c3)C(=O)N(C3CCC(=O)NC3=O)C5)C4)c(OC)c2)c2cc(C)[nH]c2c1=O (stereo not drawn) [Compound D467]	> 1000 nM
COc1cc(-c2cn(C)c(=O)c3cnccc23)cc(OC)c1CN1CCC2(CC1)CN(c1cncc(C(=O)NC3CCC(=O)NC3=O)n1)C2 (stereo not drawn) [Compound D473]	> 1000 nM
